Experimental data published in PMC7321103, “In Vitro Metabolic Transformation of Pharmaceuticals by Hepatic S9 Fractions from Common Carp (Cyprinus carpio)” (Molecules, 2020).
Like-named read-outs stand apart in the source and are kept apart here. Each block holds one molecule with its values, some of them ahead of it.

What was measured:
CYP1A1 = assay: Inhibition of N-desmethylcitalopram formation by ellipticine in common carp S9; type: biochemical, common carp (Cyprinus carpio); settings: citalopram 5 μM
Procedure: Ellipticine (a specific inhibitor of mammalian and piscine CYP1A1) was used to investigate if CYP1A1 was responsible for metabolite formation. Incubations were performed only with citalopram. Three concentrations of ellipticine were used in the final incubations: 0.125, 1.25, and 12.5 μM. The choice of these concentrations was based on the previous results. The degree of inhibition was assessed by comparison of metabolite formation in the presence and absence of inhibitor. The incubation without inhibitor contained the same amount of methanol as in the incubations with inhibitor (0.5% from total incubation volume).

[1] = system: common carp hepatic S9 fraction; assay: Metabolite formation in common carp hepatic S9 fraction (not induced and BNF induced); type: in vitro ADME, common carp (Cyprinus carpio); settings: for Metabolites Concentration, BNF Fish S9: carp induced with 50 mg/kg BNF; for Metabolites Concentration, BNF Fish S9 / Metabolites Concentration, Fish S9: 2 µM parent pharmaceutical, 1 h, 21 °C; for Metabolites Concentration, Fish S9: not induced carp, 1 mg protein
Procedure: Fish. Fish were collected from a fishpond with a low concentration level of pharmaceuticals (305-880 ng/POCIS). Thus, fish were stocked in the pond for 1 year with a natural photoperiod. The fish were allowed to eat and swim freely in the pond without interaction with humans and avoiding stress conditions. In total, 1-year-old common […] = 12) weighing 695 ± 116 g (mean ± standard deviation) and length 330 ± 19 mm were collected during spring 2018. Additionally, β-naphtaflavone (BNF) was administrated into four fish at levels of 50 mg/kg of BNF in corn oil. Following administration, individuals were kept in a separate aquaria for 48 h, in order to achieve CYP1A1 induction. The fish were then sacrificed according to the ethical rules of the EU harmonized Animal Welfare Act of the Czech Republic. The unit is licensed (No. 53100/2013-MZE-17214), according to the Czech National Directive (the Law against Animal Cruelty, No. 246/1992). Before sampling, fish were anesthetized in an ice bath, and their spinal cords were immediately cut. Fish was bloodless and hepatic tissues were collected and stored at -80 °C before use for the preparation of S9 fraction. Hepatic tissue (approx. 1.2 g) of twelve individual common […] two individual sheep were homogenized in 10 mM Tris-HCl buffer, pH 7.4, containing 250 mM sucrose separately using an T-25 Ultra Turrax homogenizer Ika (Staufen, Germany) followed by centrifugation at 10,000× g for 15 min at 4 °C to obtain S9 fractions. The protein concentration in S9 fractions was determined by the colorimetric method according to Smith et al. at 595 nm. The S9 fractions were diluted to 10 mg/mL protein content. To account for the gender effect, four piscine S9 fractions were combined in one pool with the same ratio of males/females (1:1). The incubations were performed using three S9 pools from common carp. One pool was prepared from ovine S9 fractions. […] According to Hou et al. […] The concentrations of the parent compound and its main metabolites (metoprolol acid, N-desmethylcitalopram, norsertraline, and O-desmethylvenlafaxine) were determined by LC HRMS (Thermo Fisher Scientific, San Jose, CA, USA). The chromatographic separation was performed on a Hypersil Gold aQ analytical column (50 × 2.1 mm; 5 μm particles, Thermo Fisher Scientific). […] A heated electrospray ionization (HESI) source was used for the ionization of the target compounds with a spray voltage of 3.5 kV and nitrogen as the sheath gas (40 arbitrary units), auxiliary gas (10 arbitrary units), and collision gas. The full scan mode with high resolution (70000 FWHM) in range 100-750 m/z was used with the AGC target 3e6, and the maximum filling time 50 ms. Data acquisition was performed with Xcalibur 4.3 Software, and data processing was performed using TraceFinder 3.3 Software (both Thermo Fisher Scientific, San Jose, CA, USA). Internal standard and matrix matching standard methods were used for the quantification of target analytes.

human hepatic microsomes = system: human hepatic microsomes; set-up: method as in PMID 10494454; settings: cited from earlier work
[2] = set-up: method as in PMID 29729738; settings: fish from pond receiving WWTP water; cited from earlier work
[3] = system: sheep hepatic S9 fraction; assay: Metabolite formation in sheep hepatic S9 fraction; type: in vitro ADME; settings: 2 µM parent pharmaceutical, 1 mg protein, 1 h, 37 °C
Procedure: Sheep. Hepatic tissue from one male and one female Suffolk sheep (age, 2 years; weight 70-80 kg) were collected at a slaughterhouse in Vodňany town, Czech Republic, and stored at -80 °C. Sheep is a relatively new animal model, which has started to be used in veterinarian investigations related to drug-drug interactions, as well as for effective therapy and the limitation of drug-resistance development. Sheep phase I biotransformation enzymes, including CYPs-dependent metabolic activities in sheep liver, were already characterized by Szotakova et al., Maté et al. and Stuchlíková et al.. The use of the S9 fraction from sheep hepatic tissue could represent the mammalian metabolic system in relation to selected pharmaceuticals. […] The protein concentration in S9 fractions was determined by the colorimetric method according to Smith et al. at 595 nm. […] The concentrations of the parent compound and its main metabolites (metoprolol acid, N-desmethylcitalopram, norsertraline, and O-desmethylvenlafaxine) were determined by LC HRMS (Thermo Fisher Scientific, San Jose, CA, USA). […] Internal standard and matrix matching standard methods were used for the quantification of target analytes.

[4] = Control incubation of pharmaceutical without S9 fraction; settings: 2 µM parent pharmaceutical, no S9, 1 h
[5] = Kinetics of N-desmethylcitalopram formation from citalopram in common carp S9; type: in vitro ADME, common carp (Cyprinus carpio); settings: common carp (Cyprinus carpio), hepatic S9 fraction, Michaelis-Menten fit, citalopram 0.01-100 μM
Procedure: (§1) Kinetic analysis using multiple substrate concentrations was conducted only with citalopram using the same procedure as above-described. The substrate concentrations were 0.01, 0.03, 0.1, 1, 10, 50, 75, and 100 μM of citalopram.
(§2) The data were analyzed using non-linear regression analysis (GraphPad Prism version 4.0 for Windows, GraphPad Software, San Diego, CA, USA). The data were fitted to the Michaelis-Menten equation and two enzyme models. The goodness of fit was assessed by comparison of the coefficient of determination (r^2). Visual analysis of Eadie-Hofstee plots was used to estimate whether one or more enzymes participate in the reaction.

[6] = system: common carp hepatic S9 fraction; assay: as above; type: in vitro ADME, common carp (Cyprinus carpio); settings: Michaelis-Menten fit, citalopram 0.01-100 μM
Procedure: as §1, §2

CYP1A = system: CYP1A; set-up: method as in PMID 29704845; settings: rainbow trout microsomal fraction; cited from earlier work
CYP3A-like = system: CYP3A-like; set-up: method as in PMID 29704845; settings: rainbow trout microsomal fraction; cited from earlier work

Compound: Cc1c2ccncc2c(C)c2c1[nH]c1ccccc12 [ellipticine]
Reduction of N-desmethylcitalopram formation (CYP1A1; 0.125 μM ellipticine): 30 ± 10%
Inhibition of N-desmethylcitalopram formation (CYP1A1; 1.25 μM ellipticine): completely inhibited
Inhibition of N-desmethylcitalopram formation (CYP1A1; 12.5 μM ellipticine): completely inhibited

Metabolite formation, fold reduction in induced fish vs not induced S9 fraction [1]: 3.4 fold
Compound: CC(C)NCC(O)COc1ccc(CC(=O)O)cc1 (stereo not shown) [Metoprolol acid, metoprolol acid]

Compound: CN(C)CCCC1(c2ccc(F)cc2)OCc2cc(C#N)ccc21 (stereo not shown) [citalopram, Citalopram]
Vmax of citalopram N-demethylation, first enzyme (human hepatic microsomes; biphasic model): 25 pmol/min/mg
Vmax of citalopram N-demethylation, second enzyme (human hepatic microsomes; biphasic model): 158 pmol/min/mg
Km (human hepatic microsomes; biphasic model, read-out: Km of citalopram N-demethylation, first enzyme): 17.3 µM
Km (human hepatic microsomes; biphasic model, read-out: Km of citalopram N-demethylation, second enzyme): 185 µM
Average concentration in hepatic tissue of common carp [2]: 3.1 ± 2.9 ng/g wet weight

Metabolites Concentration, Sheep S9 [3]: 823 pmol/min/mg
Metabolites Concentration, BNF Fish S9 [1]: <LOQ
Metabolites Concentration, Fish S9 [1]: <LOQ
Metabolites Concentration, Control (without S9) [4]: <LOQ
Compound: CN(C)CC(c1ccc(O)cc1)C1(O)CCCCC1 (stereo not shown) [O-desmethylvenlafaxine]

Metabolite formation, fold higher in induced fish than in not induced S9 fraction [1]: 1.7 fold
Compound: N[C@H]1CC[C@@H](c2ccc(Cl)c(Cl)c2)c2ccccc21 [Norsertraline, norsertraline]

Metabolites Concentration, Sheep S9 [3]: 2309 pmol/min/mg
Metabolite formation, fold higher in induced fish than in not induced S9 fraction ([1]; BNF induced vs not induced carp S9): 5.3 fold
Metabolites Concentration, BNF Fish S9 [1]: 1557 pmol/min/mg
Metabolites Concentration, Fish S9 [1]: 295 pmol/min/mg
Km [5]: 29.7 ± 4.6 µM
Metabolites Concentration, Control (without S9) [4]: <LOQ
Compound: CNCCCC1(c2ccc(F)cc2)OCc2cc(C#N)ccc21 (stereo not shown) [N-desmethylcitalopram]
Vmax of N-desmethylcitalopram formation [6]: 1781 ± 90 pmol/min/mg
Vmax for N-desmethylcitalopram, monophasic model (human hepatic microsomes; monophasic model): 183 to 281 pmol/min/mg
Average concentration in hepatic tissue of common carp [2]: 2.6 ± 1.4 ng/g wet weight

Compound: COc1ccc(C(CN(C)C)C2(O)CCCCC2)cc1 (stereo not shown) [venlafaxine]
Effect on EROD activity (CYP1A): did not alter
Effect on BFCOD activity (CYP3A-like): did not alter
